Patent publication US20240209011A1, “HETEROAROMATIC PHOSPHONIUM SALTS FOR TREATING CANCER” (FLORATEK PHARMA S.A., priority 2021, published 2024)

Columns and labels:
Format in all cases: cell-based
[1] = test system: colon cancer cell; assay: Activity against colon cancer cells; conditions: colon cancer cell growth; summary of Tables 7A-7D
Method: (§1) Antitumor activity of the compounds and doxorubicin as a positive control was assessed by using the CellTiter-Blue Cell Viability Assay (Promega, #G8082) or CellTiter-Glow® Luminescent Cell Viability assay (Promega #G7572) according to the manufacturer's instructions. The compounds were tested at 5 or 6 concentrations in half-log increments (highest concentration 30 μM or 100 μM) in duplicate or triplicate well conditions.
(§2) Tumor cells were grown at 37° C. in a humidified atmosphere with 5% CO2 in RPMI 1640 or DMEM medium, supplemented with 10% (v/v) fetal calf serum and 50 μg/ml gentamicin for up to 20 passages, and were passaged once or twice weekly. Cells were harvested using TrypLE or PBS buffer containing 1 mM EDTA, and the percentage of viable cells is determined using a CASY Model TI cell counter (OMNI Life Science). Cells were harvested from exponential phase cultures, counted and plated in 96 well flat-bottom microtiter plates at a cell density depending on the cell line's growth rate (4,000-20,000 cells/well depending on the cell line's growth rate, up to 60,000 for hematological cancer cell lines) in RPMI 1640 or DMEM medium supplemented with 10% (v/v) fetal calf serum and 50 μg/ml gentamicin (140 μl/well). Cultures were incubated at 37° C. and 5% CO2 in a humidified atmosphere. After 24 h, 10 μl of test compounds or control medium were added, and left on the cells for another 72 h. Compounds were serially diluted in DMSO, transferred in cell culture medium, and added to the assay plates. The DMSO concentration was kept constant at <0.3% v/v across the assay plate. Viability of cells was quantified by the CellTiter-Blue® cell viability assay (Promega G8081) or CellTiter-Glow® Luminescent Cell Viability assay (Promega #G7572). Fluorescence (FU) was measured by using the EnSpire® multimode plate reader (Perkin Elmer) (excitation X=570 nm, emission λ=600 nm). Luminescence was measured with a microplate luminometer (Promega or PerkinElmer).
(§3) Sigmoidal concentration-response curves were fitted to the data points (test-versus-control, T/C values) obtained for each tumor model using 4 parameter non-linear curve fit (Charles River DRS Datawarehouse Software) or with GraphPad prism 5.02 software. IC50 values are reported as absolute IC50 values, being the concentration of test compound at the intersection of the concentration-response curves with T/C=50% Cell lines tested are presented in Table 1.

[2] = test system: breast cancer cell; assay: Activity against breast cancer cells; conditions: breast cancer cell growth; Tables 5A and B
Method: as §1, §2, §3

[3] = test system: prostate cancer cell; assay: Activity against prostate cancer cells; conditions: prostate cancer cell growth; text summary of Table 21
Method: as §1, §2, §3

[4] = test system: MCF-7; assay: Cell viability assay (CellTiter-Blue/CellTiter-Glow); conditions: Homo sapiens, MCF7; breast carcinoma cell line MCF-7; absolute IC50; 72 h
Method: as §1, §2, §3

[5] = test system: LNCaP; assay: as above; conditions: Homo sapiens; prostate carcinoma cell line LNCaP; absolute IC50; 72 h
Method: as §1, §2, §3

[6] = test system: parental H69 cells; assay: as above; conditions: Homo sapiens, NCI-H69; SCLC parental H69 cells
Method: as §1, §2, §3

[7] = test system: 22Rv1; assay: as above; conditions: Homo sapiens; prostate carcinoma cell line 22Rv1; absolute IC50; 72 h
Method: as §1, §2, §3

[8] = test system: PC-3; assay: as above; conditions: Homo sapiens; prostate carcinoma cell line PC-3; absolute IC50; 72 h
Method: as §1, §2, §3

[9] = test system: MDA-MB-468; assay: as above; conditions: Homo sapiens; breast carcinoma cell line MDA-MB-468; absolute IC50; 72 h
Method: as §1, §2, §3

[10] = test system: HL-60; assay: as above; conditions: Homo sapiens; leukaemia cell line HL-60; absolute IC50; 72 h
Method: as §1, §2, §3

[11] = test system: LoVo; assay: as above; conditions: Homo sapiens; colon carcinoma cell line LoVo; absolute IC50; 72 h
Method: as §1, §2, §3

[12] = test system: HCT-116; assay: as above; conditions: Homo sapiens; colon carcinoma cell line HCT-116; absolute IC50; 72 h
Method: as §1, §2, §3

[13] = test system: leukaemia cell; assay: Activity against leukaemia cells; conditions: leukaemia cell growth; Tables 13A and 13B
Method: as §1, §2, §3

In the case of `O=c1cc(-c2ccc(CCC[P+](c3ccccc3)(c3ccccc3)c3ccccc3)cc2)oc2c(O)c(O)ccc12` [SND176, (3-(4-(7,8-Dihydroxy-4-oxo-4H-chromen-2-yl)phenyl)propyl)triphenylphosphonium bromide], the IC50 [1] is reported as less than 20 µM, the IC50 [2] is reported as less than 20 µM and the IC50 [3] is reported as less than 10 µM. For the same molecule, the IC50 [4] was 18.3 µM, the IC50 [5] was 3.66 µM and the IC50 [6] was 7 µM. It also gave an IC50 [7] of 8.18 µM, an IC50 [8] of 7.3 µM and an IC50 [9] of 1420 nM. For the same molecule, the IC50 [10] was 1430 nM, the IC50 [11] was 8.6 µM and the IC50 [12] was 8.68 µM. The IC50 [13] was less than 20 µM.
